Molecular target: MCH receptor (Homo sapiens, UniProt Q99705)
Experiment: High throughput functional screening FLIPR/FDSS6000: inhibition of MCH-evoked intracellular Ca2+ changes
Type: cell-based
Details: class by percent of control at 10^-7 M or IC50
In short: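 Fluo4 fluorescence (Ex 488 nm, Em 530 nm) tracked MCH-evoked [Ca2+]i transients over 290 s by FLIPR or FDSS. Cells carried a constitutively active, non-endogenous receptor version. Compounds were added 3 min before a 50 nM MCH challenge.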

Compound | class
CN(C)c1nc(N[C@H]2CC[C@@H](CNC(=O)Nc3ccc(SC(F)(F)F)cc3)CC2)nc2ccccc12 [compound 537] | 3 (Class 3: The value of percent of control at 10^−7 M was more than 60% or the value of IC50 was more than 200 nM.)
CN(C)c1nc(N[C@H]2CC[C@@H](CNC(=O)Nc3ccc(C(F)(F)F)cc3)CC2)nc2ccccc12 [compound 536] | 3 (Class 3: The value of percent of control at 10^−7 M was more than 60% or the value of IC50 was more than 200 nM.)
CN(C)c1nc(N[C@H]2CC[C@@H](NC(=S)NCc3ccccc3Cl)CC2)nc2ccccc12 [compound 254, N-(2-chlorobenzyl)-N′-(cis-4-{[4-(dimethylamino)quinazolin-2-yl]amino}cyclohexyl)thiourea] | 1 (Class 1: The value of percent of control at 10^−7 M was less than 40% or the value of IC50 was less than 50 nM.)
N-[(cis-4-{[4-(dimethylamino)quinazolin-2-yl]amino}cyclohexyl)methyl]-N′-(2-methoxy-4-nitrophenyl)urea [compound 507] | 2 (Class 2: The value of percent of control at 10^−7 M was from 40% to 60% or the value of IC50 was from 50 nM to 200 nM.)
CN(C)c1nc(N[C@H]2CC[C@@H](CNC(=S)Nc3cc([N+](=O)[O-])ccc3Cl)CC2)nc2ccccc12 [compound 722] | 3 (Class 3: The value of percent of control at 10^−7 M was more than 60% or the value of IC50 was more than 200 nM.)
CN(C)c1nc(N[C@H]2CC[C@@H](NC(=S)Nc3cc(Br)ccc3Br)CC2)nc2ccccc12 [compound 295] | 3 (Class 3: The value of percent of control at 10^−7 M was more than 60% or the value of IC50 was more than 200 nM.)
CC(NC(=S)NC[C@H]1CC[C@@H](Nc2nc(N(C)C)c3ccccc3n2)CC1)c1ccccc1 (relative stereo) [compound 707] | 3 (Class 3: The value of percent of control at 10^−7 M was more than 60% or the value of IC50 was more than 200 nM.)
CCOC(=O)c1ccc(NC(=O)NC[C@H]2CC[C@@H](Nc3nc(N(C)C)c4ccccc4n3)CC2)cc1 [compound 431] | 3 (Class 3: The value of percent of control at 10^−7 M was more than 60% or the value of IC50 was more than 200 nM.)
COc1ccc(NC(=O)NC[C@H]2CC[C@@H](Nc3nc(N(C)C)c4ccccc4n3)CC2)cc1Cl [compound 530] | 3 (Class 3: The value of percent of control at 10^−7 M was more than 60% or the value of IC50 was more than 200 nM.)
CN(C)c1nc(N[C@H]2CC[C@@H](CNC(=O)Nc3ccccc3C(C)(C)C)CC2)nc2ccccc12 [compound 516, N-(2-tert-butylphenyl)-N′-[(cis-4-{[4-(dimethylamino)quinazolin-2-yl]amino}cyclohexyl)methyl]urea] | 1 (Class 1: The value of percent of control at 10^−7 M was less than 40% or the value of IC50 was less than 50 nM.)
Cc1ccc(NC(=S)N[C@H]2CC[C@@H](Nc3nc(N(C)C)c4ccccc4n3)CC2)c([N+](=O)[O-])c1 [compound 279] | 3 (Class 3: The value of percent of control at 10^−7 M was more than 60% or the value of IC50 was more than 200 nM.)
CN(C)c1nc(N[C@H]2CC[C@@H](CNC(=O)Nc3ccc(Br)cc3C(F)(F)F)CC2)nc2ccccc12 [compound 541, N-[4-bromo-2-(trifluoromethyl)phenyl]-N′-[(cis-4-{[4-(dimethylamino)quinazolin-2-yl]amino}cyclohexyl)methyl]urea] | 2 (Class 2: The value of percent of control at 10^−7 M was from 40% to 60% or the value of IC50 was from 50 nM to 200 nM.)
CC(C)CNC(=S)NC[C@H]1CC[C@@H](Nc2nc(N(C)C)c3ccccc3n2)CC1 [compound 602, N-[(cis-4-{[4-(dimethylamino)quinazolin-2-yl]amino}cyclohexyl)methyl]-N′-isobutylthiourea] | 2 (Class 2: The value of percent of control at 10^−7 M was from 40% to 60% or the value of IC50 was from 50 nM to 200 nM.)
CC(NC(=S)NC[C@H]1CC[C@@H](Nc2nc(N(C)C)c3ccccc3n2)CC1)c1ccc(F)cc1 (relative stereo) [compound 697] | 2 (Class 2: The value of percent of control at 10^−7 M was from 40% to 60% or the value of IC50 was from 50 nM to 200 nM.)
CN(C)c1nc(N[C@H]2CC[C@@H](NC(=S)Nc3cccc(F)c3)CC2)nc2ccccc12 [compound 226] | 3 (Class 3: The value of percent of control at 10^−7 M was more than 60% or the value of IC50 was more than 200 nM.)
CN(C)c1nc(N[C@H]2CC[C@@H](CNC(=O)Nc3ccc(Oc4ccccc4)cc3)CC2)nc2ccccc12 [compound 453] | 3 (Class 3: The value of percent of control at 10^−7 M was more than 60% or the value of IC50 was more than 200 nM.)
COc1ccccc1NC(=S)NC[C@H]1CC[C@@H](Nc2nc(N(C)C)c3ccccc3n2)CC1 [compound 609] | 3 (Class 3: The value of percent of control at 10^−7 M was more than 60% or the value of IC50 was more than 200 nM.)
CN(C)c1nc(N[C@H]2CC[C@@H](CNC(=S)Nc3ccc(Cl)cc3C(F)(F)F)CC2)nc2ccccc12 [compound 737] | 3 (Class 3: The value of percent of control at 10^−7 M was more than 60% or the value of IC50 was more than 200 nM.)

Same assay, conditions: class by percent of control at 10^-7 M or by IC50; read-out: class

Compound | IC50
COc1ccc(NC(=O)N[C@H]2CC[C@@H](Nc3nc(N(C)C)c4ccccc4n3)CC2)cc1 [compound 43, N-(cis-4-{[4-(dimethylamino)quinazolin-2-yl]amino}cyclohexyl)-N′-(4-methoxyphenyl)urea] | 50 to 200 nM
CN(C)c1nc(N[C@H]2CC[C@@H](NC(=O)Nc3c(F)cc(Br)cc3Br)CC2)nc2ccccc12 [compound 76, N-(2,4-dibromo-6-fluorophenyl)-N′-(cis-4-{[4-(dimethylamino)quinazolin-2-yl]amino}cyclohexyl)urea] | < 50 nM

Results, then the compound that gave them:

IC50 | Compound
> 200 nM | CN(C)c1nc(N[C@H]2CC[C@@H](NC(=O)OCC(C)(C)C)CC2)nc2ccccc12 [compound 847]
> 200 nM | CN(C)c1nc(N[C@H]2CC[C@@H](NC(=O)Nc3cc(Cl)ccc3[N+](=O)[O-])CC2)nc2ccccc12 [compound 837]
50 to 200 nM | CN(C)c1nc(N[C@H]2CC[C@@H](NC(=O)Nc3ccc(Br)cc3)CC2)nc2ccccc12 [compound 12, N-(4-bromophenyl)-N′-(cis-4-{[4-(dimethylamino)quinazolin-2-yl]amino}cyclohexyl)urea]
> 200 nM | CN(C)c1nc(N[C@H]2CC[C@@H](CNC(=S)Nc3ccc(-c4cnco4)cc3)CC2)nc2ccccc12 [compound 818]
> 200 nM | CCCCCCCCOC(=O)N[C@H]1CC[C@@H](Nc2nc(N(C)C)c3ccccc3n2)CC1 [compound 853]
50 to 200 nM | CCCNC(=S)N[C@H]1CC[C@@H](Nc2nc(N(C)C)c3ccccc3n2)CC1 [compound 193, N-(cis-4-{[4-(dimethylamino)quinazolin-2-yl]amino}cyclohexyl)-N′-propylthiourea]
< 50 nM | CCOc1ccccc1NC(=O)N[C@H]1CC[C@@H](Nc2nc(N(C)C)c3ccccc3n2)CC1 [compound 93, N-(cis-4-{[4-(dimethylamino)quinazolin-2-yl]amino}cyclohexyl)-N′-(2-ethoxyphenyl)urea]
< 50 nM | CC(NC(=O)N[C@H]1CC[C@@H](Nc2nc(N(C)C)c3ccccc3n2)CC1)c1ccc(Br)cc1 (relative stereo) [compound 151]
> 200 nM | CNC(=S)N[C@H]1CC[C@@H](Nc2nc(N(C)C)c3ccccc3n2)CC1 [compound 186]
> 200 nM | CN(C)c1nc(N[C@H]2CC[C@@H](CNC(=S)Nc3ccc(F)c(Cl)c3)CC2)nc2ccccc12 [compound 804]
< 50 nM | Cc1c(Cl)cccc1NC(=O)N[C@H]1CC[C@@H](Nc2nc(N(C)C)c3ccccc3n2)CC1 [compound 129]

Same assay, conditions: class by percent of control at 10^−7 M or by IC50; read-out: class

IC50 | Compound
< 50 nM | CN(C)c1nc(N[C@H]2CC[C@@H](C(=O)NCc3ccccc3OC(F)(F)F)CC2)nc2ccccc12 [Example 1167, cis-4-{[4-(dimethylamino)quinazolin-2-yl]amino}-N-[2-(trifluoromethoxy)benzyl]cyclohexanecarboxamide]
< 50 nM | CN(C)c1nc(N[C@H]2CC[C@@H](C(=O)NCc3ccc(F)c(F)c3F)CC2)nc2ccccc12 [Example 1169, cis-4-{[4-(dimethylamino)quinazolin-2-yl]amino}-N-(2,3,4-trifluorobenzyl)cyclohexanecarboxamide]
< 50 nM | CN(C)c1nc(N[C@H]2CC[C@@H](CNC(=O)c3c(Cl)cc(Cl)cc3Cl)C2)nc2ccccc12 [Example 1123, 2,4,6-trichloro-N-[((1R,3S)-3-{[4-(dimethylamino)quinazolin-2-yl]amino}cyclopentyl)methyl]benzamide]
< 50 nM | CN(C)c1nc(N[C@H]2CC[C@@H](NC(=O)c3ccc(Oc4cccc(C(F)(F)F)c4)nc3)CC2)nc2ccccc12 [Example 1057, N-(cis-4-{[4-(dimethylamino)quinazolin-2-yl]amino}cyclohexyl)-6-[3-(trifluoromethyl)phenoxy]nicotinamide]
50 to 200 nM | Cc1ccc(Cl)cc1CNC(=O)[C@H]1CC[C@@H](Nc2nc(N(C)C)c3ccccc3n2)CC1 [Example 1145, cis-N-(5-chloro-2-methylbenzyl)-4-{[4-(dimethylamino)quinazolin-2-yl]amino}cyclohexanecarboxamide]
< 50 nM | CN(C)c1nc(N[C@H]2CC[C@@H](C(=O)NCc3cccc(F)c3)CC2)nc2ccccc12 [Example 1157, cis-4-{[4-(dimethylamino)quinazolin-2-yl]amino}-N-(3-fluorobenzyl)cyclohexanecarboxamide]
50 to 200 nM | COc1cccc(CNC(=O)[C@H]2CC[C@@H](Nc3nc(N(C)C)c4cc(F)c(F)cc4n3)CC2)c1 [Example 995, cis-4-{[4-(dimethylamino)-6,7-difluoroquinazolin-2-yl]amino}-N-(3-methoxybenzyl)cyclohexanecarboxamide]
< 50 nM | CN(C)c1nc(N[C@H]2CC[C@@H](NC(=O)c3cccnc3Oc3ccc(OC(F)(F)F)cc3)CC2)nc2ccccc12 [Example 1037, N-(cis-4-{[4-(dimethylamino)quinazolin-2-yl]amino}cyclohexyl)-2-[4-(trifluoromethoxy)phenoxy]nicotinamide]

Reference: patent publication US20070010671A1, “Novel quinazoline derivatives and methods of treatment related to the use thereof” (priority 2003, published 2007)
